For 37 cell lines, relative viability results are on record in the supplement of paper PMC10307832.

Compound in the assay: O=C(NCCCNc1nc(Nc2cccc(NC(=O)N3CCCC3)c2)ncc1I)c1cccs1 [BX 795]
The assay is described as follows: relative viability (nuclei count vs DMSO), 5 days (fraction); higher = more cells survive. Summed up:
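Lung cancer cell lines in 1536-well plates were exposed by pinning to five library-drug doses (not always all listed) √10 apart, following an overnight hold at 37 °C. MetaXpress counted Hoechst-stained nuclei from 4× images taken after 5 days without medium change. Viability is the median ratio of treated-well to vehicle-well nuclei across plates. Plates required control CV below 25% and at least one doubling.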

With HCC-78, the relative viability reads like this: (0.04 µM) 1.1; (0.1265 µM) 1; (0.4 µM) 1.01; (1.265 µM) 0.933.

For HCC-44, the relative viability is, setting by setting: (0.04 µM) 0.908; (0.1265 µM) 0.967; (0.4 µM) 1.07; (1.265 µM) 1.06.

As for A549, the relative viability is, setting by setting: (0.04 µM) 1.01; (0.1265 µM) 1.08; (0.4 µM) 0.97; (1.265 µM) 0.671.

For HCC-15, the relative viability is, setting by setting: (0.04 µM) 0.967; (0.1265 µM) 1.05; (0.4 µM) 0.973; (1.265 µM) 0.804.

Turning to H3255, the relative viability by setting is: (0.04 µM) 0.985; (0.1265 µM) 1.07; (0.4 µM) 1.02; (1.265 µM) 0.949.

With CAL-12T, the relative viability amounted to 0.949 (0.04 µM), 0.992 (0.1265 µM), 0.882 (0.4 µM) and 0.623 (1.265 µM).

Turning to NCI-H441, the relative viability runs as follows: (0.04 µM) 1.39; (0.1265 µM) 1.24; (0.4 µM) 1.48; (1.265 µM) 0.802.

Turning to HCC-366, the relative viability turned out to be 1.02 (0.04 µM), 1.02 (0.1265 µM), 0.944 (0.4 µM) and 0.945 (1.265 µM).

For the cell line NCI-H1437, the relative viability reads like this: (0.04 µM) 0.978; (0.1265 µM) 1.05; (0.4 µM) 1.03; (1.265 µM) 1.01.

Take NCI-H1563: the relative viability (0.04 µM) amounted to 1.08, the relative viability (0.1265 µM) was determined as 0.942, the relative viability (0.4 µM) was 1.03 and the relative viability (1.265 µM) came to 0.814.

For the cell line SK-MES-1, the relative viability runs as follows: (0.04 µM) 1.06; (0.1265 µM) 0.979; (0.4 µM) 0.932; (1.265 µM) 0.761.

On to NCI-H661, for which the relative viability stood at 1.09 (0.04 µM), 0.994 (0.1265 µM), 1.03 (0.4 µM) and 1.04 (1.265 µM).

Consider COR-L 105, for which the relative viability (0.04 µM) stood at 0.985, the relative viability (0.1265 µM) turned out to be 0.868, the relative viability (0.4 µM) is 0.776 and the relative viability (1.265 µM) amounted to 0.661.

Consider NCI-H2342, for which the relative viability by setting is: (0.04 µM) 1.03; (0.1265 µM) 0.939; (0.4 µM) 0.924; (1.265 µM) 0.978.

As for NCI-H520, the relative viability (0.04 µM) came out at 0.99, the relative viability (0.1265 µM) was determined as 1.04, the relative viability (0.4 µM) was 0.869 and the relative viability (1.265 µM) is 0.733.

Consider NCI-H1975, for which the relative viability was determined as 0.977 (0.04 µM), 1.07 (0.1265 µM), 0.858 (0.4 µM) and 0.806 (1.265 µM).

Consider NCI-H2009, for which the relative viability runs as follows: (0.04 µM) 0.981; (0.1265 µM) 0.976; (0.4 µM) 0.996; (1.265 µM) 0.782.

Turning to NCI-H2405, the relative viability runs as follows: (0.04 µM) 1.06; (0.1265 µM) 0.963; (0.4 µM) 0.988; (1.265 µM) 0.89.

Regarding NCI-H322M, the relative viability by setting is: (0.04 µM) 1.09; (0.1265 µM) 0.964; (0.4 µM) 1.12; (1.265 µM) 1.25.

As to SK-LU-1, the relative viability is 0.91 (0.04 µM), 1.18 (0.1265 µM), 0.629 (0.4 µM) and 0.836 (1.265 µM).

Regarding PC-3 [JPC-3], the relative viability stood at 1.07 (0.04 µM), 0.979 (0.1265 µM), 1.04 (0.4 µM) and 1 (1.265 µM).

For the cell line NCI-H727, the relative viability was found to be 1.01 (0.04 µM), 0.899 (0.1265 µM), 0.978 (0.4 µM) and 1 (1.265 µM).

For the cell line HARA, the relative viability (0.04 µM) was 0.921, the relative viability (0.1265 µM) amounted to 0.81, the relative viability (0.4 µM) was determined as 0.975 and the relative viability (1.265 µM) was determined as 0.947.

On to RERF-LC-KJ, for which the relative viability is, setting by setting: (0.04 µM) 1.06; (0.1265 µM) 0.949; (0.4 µM) 1.02; (1.265 µM) 0.908.

For the cell line NCI-H1651, the relative viability runs as follows: (0.04 µM) 1.04; (0.1265 µM) 1.04; (0.4 µM) 0.993; (1.265 µM) 1.

On to EPLC-272H, for which the relative viability (0.04 µM) came out at 1.01, the relative viability (0.1265 µM) is 0.899, the relative viability (0.4 µM) came to 0.885 and the relative viability (1.265 µM) was 0.748.

With NCI-H358, the relative viability was 0.955 (0.04 µM), 0.905 (0.1265 µM), 0.76 (0.4 µM) and 0.513 (1.265 µM).

Take NCI-H2126: the relative viability (0.04 µM) was 1.01, the relative viability (0.1265 µM) was 1.02, the relative viability (0.4 µM) turned out to be 1.1 and the relative viability (1.265 µM) was found to be 0.983.

Take A-427: the relative viability (0.04 µM) is 1.08, the relative viability (0.1265 µM) worked out at 0.905, the relative viability (0.4 µM) was found to be 0.998 and the relative viability (1.265 µM) was determined as 0.808.

Take SW 1573: the relative viability is 0.918 (0.04 µM), 0.984 (0.1265 µM), 1.1 (0.4 µM) and 0.651 (1.265 µM).

With NCI-H522, the relative viability runs as follows: (0.04 µM) 0.92; (0.1265 µM) 0.877; (0.4 µM) 0.921; (1.265 µM) 1.01.

NCI-H650: the relative viability stood at 0.933 (0.04 µM), 1.02 (0.1265 µM), 0.954 (0.4 µM) and 0.805 (1.265 µM).

Consider NCI-H2170, for which the relative viability is, setting by setting: (0.04 µM) 0.955; (0.1265 µM) 0.951; (0.4 µM) 0.958; (1.265 µM) 0.942.

Regarding NCI-H1395, the relative viability (0.04 µM) worked out at 0.839, the relative viability (0.1265 µM) came out at 0.858, the relative viability (0.4 µM) worked out at 0.586 and the relative viability (1.265 µM) worked out at 0.633.

As for ChaGo-K-1, the relative viability turned out to be 0.947 (0.04 µM), 1.06 (0.1265 µM), 0.959 (0.4 µM) and 0.981 (1.265 µM).

As to LXF-289, the relative viability (0.04 µM) stood at 0.962, the relative viability (0.1265 µM) was 1, the relative viability (0.4 µM) amounted to 1.02 and the relative viability (1.265 µM) was found to be 0.9.

With EMC-BAC-2, the relative viability (0.04 µM) was 0.978, the relative viability (0.1265 µM) worked out at 0.843, the relative viability (0.4 µM) was determined as 0.951 and the relative viability (1.265 µM) worked out at 0.633.
